These results are taken from ChEMBL document CHEMBL3867470, “Synthesis and biological evaluation of heteroaryl styryl sulfone derivatives as anticancer agents” (Bioorg Med Chem Lett, 2016).

Activity calls are given as the source filed them. The rule behind the calls is not given here.

Data set [1] is described as follows: Antiproliferative activity against human A2780 cells measured after 72 hrs by MTT assay. The data set is classed as functional. The settings on record: A2780, 72 h.
Data set [2] in a line: Antiproliferative activity against human HCT116 cells measured after 72 hrs by MTT assay. The data set is classed as functional. The settings on record: HCT-116, 72 h. Background: Tetrazolium assays rely on reduction of a dye to a coloured formazan, in cell work by metabolically active cells.
A short description of data set [3]: Antiproliferative activity against human MCF7 cells measured after 72 hrs by MTT assay. The data set is classed as functional. Particulars: MCF7, 72 h.
Data set [4] is described as follows: Antiproliferative activity against human HT-29 cells measured after 72 hrs by MTT assay. In kind it is functional. Particulars: HT-29, 72 h.
Data set [5] is described as follows: Antiproliferative activity against human COLO205 cells measured after 72 hrs by MTT assay. In kind it is functional. Particulars: COLO 205, 72 h.
The nature of data set [6]: Antiproliferative activity against human KM12 cells measured after 72 hrs by MTT assay. The data set is classed as functional. Particulars: KM12, 72 h.
Data set [7] can be described thus: Antiproliferative activity against human PANC1 cells measured after 72 hrs by MTT assay. The settings on record: PANC-1, 72 h. In kind it is functional.
Data set [8] in a line: Antiproliferative activity against human PC3 cells measured after 72 hrs by MTT assay. The data set is classed as functional. Particulars: PC-3, 72 h.
Data set [9] can be described thus: Antiproliferative activity against human LNCAP cells measured after 72 hrs by MTT assay. The data set is classed as functional.
Data set [10] in a line: Antiproliferative activity against human C4-2B cells measured after 72 hrs by MTT assay. The data set is classed as functional. The settings on record: LNCaP C4-2B.
Data set [11] in a line: Antiproliferative activity against human 22Rv1 cells measured after 72 hrs by MTT assay. In kind it is functional, CWR22R. The settings on record: 22Rv1, 72 h.
Data set [12] is described as follows: Antiproliferative activity against human DU145 cells measured after 72 hrs by MTT assay. Particulars: DU-145, 72 h. In kind it is functional.
A short description of data set [13]: Antiproliferative activity against human DaOY cells measured after 72 hrs by MTT assay. The data set is classed as functional.
The nature of data set [14]: Cytotoxicity against human WI38 cells assessed as reduction in cell viability measured after 72 hrs by MTT assay. The data set is classed as toxicity, cell-based, WI-38.
Data set [15] can be described thus: Cytotoxicity against human MRC5 cells assessed as reduction in cell viability measured after 72 hrs by MTT assay. The data set is classed as toxicity, cell-based.
Data set [16] in a line: Cell cycle arrest in human A2780 cells assessed as accumulation at Sub-G1 phase at GI50 measured after 24 hrs by propidium iodide staining-based FACS analysis (reference value: 2%). The data set is classed as functional. For orientation: In flow cytometry, cells or beads pass a laser one at a time.
The nature of data set [17]: Cell cycle arrest in human A2780 cells assessed as accumulation at S-phase at GI50 measured after 24 hrs by propidium iodide staining-based FACS analysis (reference value: 19%). The data set is classed as functional.
A short description of data set [18]: Cell cycle arrest in human A2780 cells assessed as accumulation at G2/M-phase at GI50 measured after 24 hrs by propidium iodide staining-based FACS analysis (reference value: 26%). In kind it is functional.
The nature of data set [19]: Cell cycle arrest in human A2780 cells assessed as accumulation at G1-phase at GI50 measured after 24 hrs by propidium iodide staining-based FACS analysis (reference value: 53%). The data set is classed as functional.
A short description of data set [20]: Cell cycle arrest in human A2780 cells assessed as accumulation at Sub-G1 phase at 5 times GI50 measured after 24 hrs by propidium iodide staining-based FACS analysis (reference value: 2%). In kind it is functional.
Data set [21] in a line: Cell cycle arrest in human A2780 cells assessed as accumulation at S-phase at 5 times GI50 measured after 24 hrs by propidium iodide staining-based FACS analysis (reference value: 19%). The data set is classed as functional.
The nature of data set [22]: Cell cycle arrest in human A2780 cells assessed as accumulation at G2/M-phase at 5 times GI50 measured after 24 hrs by propidium iodide staining-based FACS analysis (reference value: 26%). In kind it is functional.
A short description of data set [23]: Cell cycle arrest in human A2780 cells assessed as accumulation at G1-phase at 5 times GI50 measured after 24 hrs by propidium iodide staining-based FACS analysis (reference value: 53%). The data set is classed as functional.
Data set [24] relates to A2780. As to the kind of experiment: Induction of apoptosis in human A2780 cells assessed as viable cells at GI50 measured after 24 hrs by Annexin V/propidium iodide staining-based FACS analysis (reference value: 92.6%). The data set is classed as functional.
In data set [25] the test system is A2780. Nature of the data set: Induction of apoptosis in human A2780 cells assessed as early apoptotic cells at GI50 measured after 24 hrs by Annexin V/propidium iodide staining-based FACS analysis (reference value: 2.81%). The data set is classed as functional.
For data set [26], the system named is A2780. Nature of the data set: Induction of apoptosis in human A2780 cells assessed as late apoptotic cells at GI50 measured after 24 hrs by Annexin V/propidium iodide staining-based FACS analysis (reference value: 4.23%). In kind it is functional.
Data set [27] has as its system A2780. As to the kind of experiment: Induction of apoptosis in human A2780 cells assessed as necrotic cells at GI50 measured after 24 hrs by Annexin V/propidium iodide staining-based FACS analysis (reference value: 0.34%). In kind it is functional.
Data set [28] deals with A2780. Nature of the data set: Induction of apoptosis in human A2780 cells assessed as viable cells at 5 times GI50 measured after 24 hrs by Annexin V/propidium iodide staining-based FACS analysis (reference value: 92.6%). In kind it is functional.
The test system of data set [29] is A2780. Nature of the data set: Induction of apoptosis in human A2780 cells assessed as early apoptotic cells at 5 times GI50 measured after 24 hrs by Annexin V/propidium iodide staining-based FACS analysis (reference value: 2.81%). In kind it is functional.
The test system of data set [30] is A2780. As to the kind of experiment: Induction of apoptosis in human A2780 cells assessed as late apoptotic cells at 5 times GI50 measured after 24 hrs by Annexin V/propidium iodide staining-based FACS analysis (reference value: 4.23%). In kind it is functional.
Data set [31] deals with A2780. As to the kind of experiment: Induction of apoptosis in human A2780 cells assessed as necrotic cells at 5 times GI50 measured after 24 hrs by Annexin V/propidium iodide staining-based FACS analysis (reference value: 0.34%). The data set is classed as functional.
The target in data set [32] is Serine/threonine-protein kinase PLK1 (Homo sapiens) (UniProt P53350). As to the kind of experiment: Inhibition of Plk1 in human A2780 cells assessed as reduction in CDC25C phosphorylation at Ser198 residue at 300 to 3000 nM measured after 24 hrs by Western blot analysis. The data set is classed as cell-based. For orientation: A western blot detects proteins with antibodies after separation by electrophoresis.
Serine/threonine-protein kinase PLK1 (Homo sapiens), sequence (P53350 whole entry): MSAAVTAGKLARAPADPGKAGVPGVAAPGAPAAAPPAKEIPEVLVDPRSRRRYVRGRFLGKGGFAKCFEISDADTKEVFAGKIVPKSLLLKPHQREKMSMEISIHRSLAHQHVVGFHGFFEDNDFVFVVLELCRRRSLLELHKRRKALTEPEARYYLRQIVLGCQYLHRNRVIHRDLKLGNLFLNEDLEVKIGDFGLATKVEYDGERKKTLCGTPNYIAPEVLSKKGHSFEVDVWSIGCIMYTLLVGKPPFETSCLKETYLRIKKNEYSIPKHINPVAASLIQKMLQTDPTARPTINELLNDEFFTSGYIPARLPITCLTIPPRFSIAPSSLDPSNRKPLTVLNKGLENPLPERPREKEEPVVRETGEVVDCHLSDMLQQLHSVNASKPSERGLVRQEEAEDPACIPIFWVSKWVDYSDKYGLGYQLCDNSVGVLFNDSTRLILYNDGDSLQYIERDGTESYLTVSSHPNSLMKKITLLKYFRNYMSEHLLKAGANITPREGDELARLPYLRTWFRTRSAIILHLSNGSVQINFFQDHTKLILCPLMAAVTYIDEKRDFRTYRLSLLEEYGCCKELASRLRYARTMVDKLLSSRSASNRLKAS

Data set [33] concerns A2780. Nature of the data set: Induction of apoptosis in human A2780 cells assessed as downregulation of Mcl1 level at 300 to 3000 nM measured after 24 hrs by Western blot analysis. In kind it is functional, cell-based.
Data set [34] deals with A2780. As to the kind of experiment: Induction of apoptosis in human A2780 cells assessed as cleaved PARP level at 300 to 3000 nM measured after 24 hrs by Western blot analysis. The data set is classed as functional, cell-based.
Data set [35] relates to A2780. Nature of the data set: Induction of apoptosis in human A2780 cells assessed as downregulation of Mcl1 level at 200 to 1000 nM measured after 24 hrs by Western blot analysis. In kind it is functional, cell-based.
Data set [36] relates to A2780. As to the kind of experiment: Induction of apoptosis in human A2780 cells assessed as cleaved PARP level at 200 to 1000 nM measured after 24 hrs by Western blot analysis. In kind it is functional, cell-based.
Data set [37] addresses Serine/threonine-protein kinase PLK1 (Homo sapiens) (UniProt P53350). Particulars: A2780, 200 to 1000 nM.
Description: Inhibition of Plk1 in human A2780 cells assessed as reduction in CDC25C phosphorylation at Ser198 residue at 200 to 1000 nM measured after 24 hrs by Western blot analysis

As to `COc1cc(OC)c(/C=C/S(=O)(=O)Cc2cnc(Cl)cn2)c(OC)c1`, the concentration for 50% growth inhibition (GI50) (as a rule, the concentration that inhibits growth by half) in data set [1] is 4760 nM; in [2] it was above 10000 nM.
On to `COc1cc(OC)c(/C=C/S(=O)(=O)Cc2nc(N)ncc2OC)c(OC)c1`, for which the concentration for 50% growth inhibition (GI50) in data set [1] and in [2] was above 10000 nM in each case.
Turning to `CCOc1ccc(NS(=O)(=O)/C=C/c2c(OC)cc(OC)cc2OC)cc1`, the GI50 in [1] is 310 nM; in data set [2], 350 nM; in data set [3], 530 nM; in data set [4] it was 580 nM; in [5] it was 590 nM; in data set [6] it was 340 nM. The concentration for 50% growth inhibition (GI50) in data set [7] stood at 300 nM; in data set [8], 600 nM; in [9], 520 nM; in [10] it was 450 nM; in data set [11], 530 nM; in data set [12], 520 nM. The compound also registered a GI50 in data set [13] of 340 nM. Also, the GI50 at 72 h in [14] and in [15] was above 10000 nM throughout. Besides, the Activity in data set [16] came to 5%; in data set [17], 15%; in [18], 29%; in [19], 50%; in data set [20], 19%; in data set [21], 16%. The Activity came out at 44% in data set [22]; 21% in [23]; 83.21% in the data set with A2780 [24]; 10.03% in the data set on A2780 [25]; 5.92% in the data set on A2780 [26]; 0.78% in the data set on A2780 [27]. Further, the Activity in the data set with A2780 [28] was found to be 70.89%; in the data set with A2780 [29], 20.22%; in the data set with A2780 [30], 7.57%; in the data set on A2780 [31], 1.17%. For the same compound, the inhibition entry in [32] was “Active”. Moreover, the result in the data set on A2780 [33] and in the data set on A2780 [34] was Active.
As to `CCOc1cnc(CS(=O)(=O)/C=C/c2c(OC)cc(OC)cc2OC)cn1`, the GI50 in data set [1] is 540 nM; in data set [2], 1280 nM.
The matching figures for `COc1cc(OC)c(/C=C/S(=O)(=O)Nc2ccc(OC)nc2)c(OC)c1`: 380 nM and 1000 nM.
Regarding `COc1cc(OC)c(/C=C/S(=O)(=O)Cc2nc(Cl)ncc2OC)c(OC)c1`, the concentration for 50% growth inhibition (GI50) in [1] and in data set [2] was above 10000 nM throughout.
In the case of `COc1ccc(NS(=O)(=O)/C=C/c2c(OC)cc(OC)cc2OC)cc1`, the GI50 in data set [1] and in data set [2] was 10 nM throughout.
As for `COc1cc(OC)c(/C=C/S(=O)(=O)Nc2ccc(Cl)cc2)c(OC)c1`, the 50% growth inhibitory concentration (GI50) in data set [1] and in data set [2] was above 10000 nM in each case.
Regarding `CCOc1cc(OC)cc(OC)c1/C=C/S(=O)(=O)Nc1ccc(OC)nc1`, the values for the GI50 in data set [1] and in data set [2] were 470 nM and 420 nM, respectively.
`COc1cc(OC)c(/C=C/S(=O)(=O)Nc2ccc(Cl)nc2)c(OC)c1`: the GI50 in [1] stood at 2600 nM; in data set [2], 5640 nM.
In the case of `CNc1ncc(OC)c(CS(=O)(=O)/C=C/c2c(OC)cc(OC)cc2OC)n1`, the values for the 50% growth inhibitory concentration (GI50) in data set [1] and in [2] were 7540 nM and above 10000 nM, respectively.
For `COc1cc(OC)c(/C=C/S(=O)(=O)Cc2cnc(OC)c(OC)c2)c(OC)c1`, the GI50 in data set [1] came out at 930 nM; in data set [2] it was 2810 nM.
As to `COc1cc(OC)c(/C=C/S(=O)(=O)Cc2ccc(OC)c(NCC(=O)[O-])c2)c(OC)c1.[Na+]` [RIGOSERTIB SODIUM], the GI50 in [1] was 40 nM; in data set [2] it was 60 nM. Besides, the Activity turned out to be 5% in data set [16]; 19% in data set [17]; 28% in [18]; 48% in data set [19]; 30% in data set [20]; 17% in data set [21]. Moreover, the Activity stood at 33% in data set [22]; 20% in data set [23]; 91.82% in the data set with A2780 [24]; 5.16% with A2780 [25]; 2.75% in the data set on A2780 [26]; 0.25% in the data set with A2780 [27]. Also, the Activity in the data set on A2780 [28] amounted to 69.9%; in the data set on A2780 [29], 27.41%; in the data set on A2780 [30], 2.25%; with A2780 [31] it was 0.29%. For the same compound, the result in the data set with A2780 [35] and in the data set on A2780 [36] was Active. The inhibition result in data set [37] was “Active”.
Regarding `COc1cc(OC)c(/C=C/S(=O)(=O)Cc2cnc(OC)cn2)c(OC)c1`, the values for the 50% growth inhibitory concentration (GI50) in data set [1] and in data set [2] were 490 nM and 950 nM, respectively.
Take `COc1cc(OC)c(/C=C/S(=O)(=O)Nc2cnc(Cl)cn2)c(OC)c1`: the 50% growth inhibitory concentration (GI50) in data set [1] and in data set [2] was above 10000 nM in each case.
